Results from patent US9283279B2, “Targeted polymeric conjugates and uses thereof” (priority 2011, dated 2016).

Key:
[1] = Pharmacokinetic studies in mice; assay type: in vivo, female Balb/C mice
Procedure: The mice were randomly divided in three groups of 10 animals. […] To 50 μL of plasma, 350 μL of CH3CN was added for protein precipitation and the resulting mixture was centrifuged at 20,000 g for 5 minutes. A 300 μL aliquot of the supernatant was collected and freeze-dried. The residue was dissolved in 50 μL of CH3OH and analyzed by RP-HPLC under the condition reported hereinabove.

[2] = test system: 4T1-mCherry tumors in the tibia; test: Microvessel density (CD34 staining), 4T1-mCherry model; assay type: in vivo, Balb/c female mice; settings: compared to saline-treated control group
Procedure: Immunohistochemistry of tumors in the tibia was performed using samples fixed with 4% paraformaldehyde, following decalcification in EDTA and paraffin embedding by the standard procedure. Paraffin sections of 4 μm were de-paraffinized, rehydrated, and stained by hematoxylin and eosin (H&E). For CD34 staining, slides were deparaffinized and pre-treated with 10 mM citrate buffer, pH=6.0, for 20 minutes in a steam pressure cooker (Decloaking Chamber, BioCare Medical, Walnut Creek, Calif.).
All further steps were performed at room temperature in a hydrated chamber. Slides were covered with Peroxidase Block (Merck, Germany) for 10 minutes to quench endogenous peroxidase activity, followed by incubation with 2% of horse serum in 50 mM Tris-HCl, pH 7.4, for 30 minutes to block non-specific binding sites. Primary rat anti-murine CD34 antibody (MEC 14.7 1:50 dilution; Abcam, Cambridge, Mass.) was applied in 1% rabbit serum albumin in Tris-HCl, pH 7.4 at 4° overnight. Slides were washed in 50 mM TrisHCl, pH 7.4 and rabbit anti-rat antibody (1:750 dilution; Vector Laboratories, Calif., USA) was applied for 30 minutes. Following further washing, immunoperoxidase staining was developed using HistoMark TrueBlue peroxidase system (KPL, USA) per the manufacturer instructions and counterstained with safranin.

[3] = blood samples on day 11; 15 mg/kg PTX or equivalent
Procedure: Samples were counted no longer than five minutes after blood was drawn from mice. Ten μl of blood samples were mixed with 90 μl of track solution (1% acetic acid in DDW), and cells were counted by a Z1 Coulter® Particle Counter (Beckman Coulter™). Data is expressed as mean±s.e.m.

[4] = test system: circulating endothelial cells (CEC) and circulating endothelial progenitor (CEP); settings: day 11 of treatment
[5] = test system: PC3 human prostate adenocarcinoma cells; test: PC3 cell viability / proliferation assay (MTT); assay type: cell-based; settings: PC-3, 72 hours incubation
Procedure: PC3 cells were plated onto 96 well plate (5×10^3 cells/well) in DMEM supplemented with 5% FBS and incubated for 24 h (37° C.; 5% CO2). […] Following incubation, PC3 cells were counted by MTT.

[6] = test system: 4T1-mCherry murine mammary adenocarcinoma in the tibia; assay type: in vivo, Balb/c female mice; settings: 4T1-mCherry tumors in the tibia
[7] = female, mouse, plasma, iv, i.v. 10 mg/Kg PTX equiv., Balb/C mice

Compound `CC(=O)O[C@H]1C(=O)[C@@]2(C)[C@H]([C@H](OC(=O)c3ccccc3)[C@]3(O)C[C@H](OC(=O)[C@H](O)[C@@H](NC(=O)c4ccccc4)c4ccccc4)C(C)=C1C3(C)C)[C@]1(OC(C)=O)CO[C@@H]1C[C@@H]2O` [PTX, Paclitaxel] has a Vd [1, 7] of 0.161 ± 0.0021 L, a clearance [1, 7] of 7.4 ± 1.5 mL/min and a half-life ([1]; female, mouse, plasma, iv, i.v. 10 mg/Kg PTX equiv., Balb/C mice, read-out: T1/2β (elimination half-life)) of 15.1 min. For the same compound, the T1/2α ([1]; i.v. 10 mg/Kg PTX equiv., Balb/C mice) was 1.3 ± 0.3, the “time at which PTX was not detectable” value ([1]; serum PTX by RP-HPLC, i.v. 10 mg/Kg) was 60 min and the “reduction in micro-vessel density (MVD)” value [2] was “about 50%”. For the same compound, the WBC counts [3] was “significant decrease”, the “viable CEP levels” value [4] was “increase” and the IC50 [5] was 25 to 60 nM. The “H&E histology of the tibia” value [6] was “tumor filled the bone marrow space and destroyed both trabecular and cortical bone”.
